Data: article PMC10518340, “Secreted LRPAP1 binds and triggers IFNAR1 degradation to facilitate virus evasion from cellular innate immunity” (Signal Transduction and Targeted Therapy, 2023)

Experiments:
[1] = tested on: IFNAR1; experiment: IFNAR1 protein level, HepAD38 cells, immunoblot; assay type: cell-based; details: siRNA or overexpression 48 h; LF 400 nM 24 h
[2] = tested on: type I IFN signaling pathway; experiment: Interferon-stimulated gene (ISG) mRNA levels, RD cells; assay type: cell-based; details: excessive LRPAP1 expression
[3] = tested on: 2A^pro; experiment: MST binding to recombinant 2A protease (baits r2A and 2Am; MS and MST); parameters: species or system EV71; details: recombinant 2A^pro (r2A) and 2A^C110A (2Am) as baits
Experimental: (§1) The polyhistidine (His)-tag peptides, the recombinant 2A, the recombinant 2Am, and ECD-IFNAR1, were incubated with the RED-tris-NTA 2nd Generation dye (Cat#MO-L018, Nanotemper-Technologies) for 30 min, respectively. Then these fluorescently labeled peptides were mixed with the serial diluted ligands, including the scramble peptide, the commercial penetrating peptide (RV5), LRPAP1 peptides (RAPD1P1, RAPD1P2), or rLRPAP1 without His-tag, respectively. The mixtures were captured by Monolith^TM NT.115 Series capillaries (Cat# MO-K022). Capillaries were then subjected to Monolith NT for MST analysis. According to Monolith guidelines, signal-to-noise (S/N) ratios greater than 5.0 were indicated as the valid binding.
as §1, with “NT. For” for “NT for”, “According to Monolith guidelines, signal-to-noise (S/N) ratios greater than 5.0 were indicated as the valid binding.” left out

[4] = tested on: HCoV-OC43; experiment: HCoV-OC43 infection of RD cells (viral RNA, TCID50, CPE); details: antibody 0.5 μg/ml; peptides 1 μM or rLRPAP1 200 nM pre-treatment 1 h, 72 h; siRNA 24 h then MOI 1, 72 h
[5] = tested on: HSV-1; experiment: HSV-1 infection of RD cells (viral DNA, TCID50, viral protein, CPE)
[6] = tested on: extracellular domain of IFNAR1; experiment: Pull-down / co-immunoprecipitation of LRPAP1 with IFNAR1; assay type: binding; details: HEK-293T cells ectopic-expressing LRPAP1 and IFNAR1; also mouse cerebrum
Experimental: (§2) The interaction of LRPAP1, LRP1 and IFNAR1 was examined by immunoprecipitation using a protocol described as followed. HEK293T cells were cultured at around 90% confluence in a 100 mm tissue culture dish. Cells were washed with 10 ml of PBS and harvested in 0.5 ml of ice-cold lysis buffer ([…], pH 7.4, 1% SDS, 1% NP-40) and Protease Cocktail (Roche) and PhoSTOP (Roche). The total extract was pre-cleared with 10 μg normal rabbit IgG (Cell signaling, 2729 S) and 20 μl of protein A/G plus-agarose (Santa Cruz Biotechnology) at 4 °C on a rotor for 1 h. After gently removed protein A/G agarose beads by centrifugation at 500 rcf for 2 min, 0.2 mg of total extract was immunoprecipitated with the indicated antibodies overnight at 4 °C on a rotor. Approximately 20 μl of protein A/G plus-agarose (Santa Cruz Biotechnology) was added at 4 °C for one hour. Then, the beads were washed three times with washing buffer (lysis buffer contained 0.1% NP-40). The pellet was suspended with 40 μl PBS and 10 μl of 5× SDS-PAGE loading buffer and the samples were boiled for 10 min.
The interaction of LRPAP1, LRP1 and IFNAR1 was examined by immunoprecipitation using a protocol described as followed. HEK293T cells were cultured at around 90% confluence in a 100 mm tissue culture dish. […]

[7] = tested on: IFNAR1; experiment: IFNAR1 protein level, immunoblot, HEK-293T cells; assay type: cell-based, human
[8] = tested on: HBV; experiment: HBV level in HepAD38 cells, immunoblot; assay type: cell-based; details: HepAD38, siRNA or overexpression 48 h
[9] = tested on: IFNAR1; experiment: IFNAR1 ubiquitination, immunoprecipitation, HEK-293T cells; assay type: cell-based, human; details: ubiquitin, LRPAP1 and IFNAR1 overexpressed
Experimental: as §2

[10] = tested on: EV71; experiment: EV71 infection of RD cells (viral RNA, titer, viral protein, CPE); details: RD cells, 9 h; plasmid, recombinant protein or peptide pre-treatment; viral RNA / titer

LDL-receptor-related protein-associated protein 1 [LRPAP1]
IFNAR1 expression in HepAD38 cells [1]: decreased level of IFNAR1
type I IFN signaling pathway [2]: suppressing the type I IFN signaling pathway and the expression of downstream interferon-stimulated genes
interaction with 2A^pro [3]: interacts with 2A^pro
HCoV-OC43 CPE [4]: more obvious cytopathic effects
HSV-1 CPE ([5]; peptides 1 μM or rLRPAP1 200 nM pre-treatment 1 h, 24 h): more obvious cytopathic effect
HSV-1 DNA replication ([5]; pre-treated 1 h, MOI 10, 24 h, RT-qPCR): promoted the DNA replication of HSV-1
interaction of LRPAP1 and IFNAR1 (co-immunoprecipitation) [6]: confirmed the interaction of LRPAP1 and IFNAR1
IFNAR1 level on simultaneous expression of LRPAP1 and 2A^pro ([7]; co-expressed with 2A^pro): complete undetectability of IFNAR1 levels
IFNAR1 level ([7]; transfected cells (ectopic expression or siRNA)): decreasing IFNAR1 to a marginal detectable level
HBV level [8]: higher HBV loads
IFNAR1 ubiquitination [9]: dramatically increased IFNAR1 ubiquitination
EV71 infection [10]: strikingly promoted EV71 infection
